These results are taken from publication PMC10261046, “Mechanism of small molecule inhibition of Plasmodium falciparum myosin A informs antimalarial drug design” (Nature Communications, 2023).

For test [1], the target named is T1, PfMyoA (Plasmodium falciparum myosin A) (Plasmodium falciparum, UniProt Q8IDR3). The test can be described thus: X-ray crystal structure, […] Å. The test is classed as binding. Further details: gene MyoA; with PfELC and PfMTIP light chains.
Target sequence in this assay (Q8IDR3 whole entry): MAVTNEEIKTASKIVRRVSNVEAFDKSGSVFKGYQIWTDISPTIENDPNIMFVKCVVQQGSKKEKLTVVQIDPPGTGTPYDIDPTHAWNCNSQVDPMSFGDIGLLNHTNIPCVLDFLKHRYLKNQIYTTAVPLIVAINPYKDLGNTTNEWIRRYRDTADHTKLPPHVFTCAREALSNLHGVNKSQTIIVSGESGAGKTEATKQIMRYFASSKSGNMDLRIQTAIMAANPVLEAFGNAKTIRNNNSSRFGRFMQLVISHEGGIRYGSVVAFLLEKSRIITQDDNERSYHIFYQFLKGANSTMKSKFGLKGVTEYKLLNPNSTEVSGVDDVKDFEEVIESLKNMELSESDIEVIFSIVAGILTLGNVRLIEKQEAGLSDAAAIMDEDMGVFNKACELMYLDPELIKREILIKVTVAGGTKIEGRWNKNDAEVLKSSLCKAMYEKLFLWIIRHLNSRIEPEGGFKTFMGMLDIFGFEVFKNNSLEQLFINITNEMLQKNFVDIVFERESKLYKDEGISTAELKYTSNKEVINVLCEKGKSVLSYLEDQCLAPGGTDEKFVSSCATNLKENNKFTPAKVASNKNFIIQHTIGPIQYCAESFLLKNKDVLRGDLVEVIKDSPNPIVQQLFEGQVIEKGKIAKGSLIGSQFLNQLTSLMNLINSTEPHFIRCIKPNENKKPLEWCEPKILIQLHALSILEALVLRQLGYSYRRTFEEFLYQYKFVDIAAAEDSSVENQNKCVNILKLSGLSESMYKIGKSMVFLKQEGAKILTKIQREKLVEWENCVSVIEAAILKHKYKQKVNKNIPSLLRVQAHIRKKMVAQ
Target sequence in this assay (Q8I4W8 entry or part of it, further chain): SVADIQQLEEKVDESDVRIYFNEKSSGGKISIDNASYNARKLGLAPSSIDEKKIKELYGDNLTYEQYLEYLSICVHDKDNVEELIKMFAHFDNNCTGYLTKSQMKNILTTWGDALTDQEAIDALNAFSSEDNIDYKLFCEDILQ
Target sequence in this assay (Q8IJM4 entry or part of it, further chain): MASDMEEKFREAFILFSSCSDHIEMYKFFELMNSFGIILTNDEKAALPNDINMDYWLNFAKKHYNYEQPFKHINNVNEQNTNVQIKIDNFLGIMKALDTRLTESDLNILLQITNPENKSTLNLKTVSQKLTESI
Test [2] deals with T1, PfMyoA (Plasmodium falciparum myosin A). Nature of the test: X-ray crystal structure, […] Å. More on the design: gene MyoA; with PfELC and PfMTIP light chains. Format: binding. The source holds these as a separate data set.
Target sequence in this assay (Q8IDR3 whole entry): as the sequence (Q8IDR3 whole entry) above
Target sequence in this assay (Q8IJM4 entry or part of it, further chain): as the sequence (Q8IJM4 entry or part of it, further chain) above
The target in the next test is T2, PfMyoA triple mutant (Plasmodium falciparum, UniProt Q8IDR3, F270Y/F471A/F645H).
T2 construct: gene MyoA; full length PfMyoA heavy chain triple mutant, co-expressed with light chains PfELC and PfMTIP; with PfELC and PfMTIP light chains
The test can be described thus: basal ATPase assay (NADH-linked). Format: biochemical.

In test [3] the target is T1, PfMyoA (Plasmodium falciparum myosin A). The test can be described thus: X-ray crystal structure ([…] Å) and affinity measurement for nucleotide-free PfMyoA; also basal and actin-activated ATPase inhibition (IC50 […]). The test is classed as binding. Further details: gene MyoA; with PfELC and PfMTIP light chains.
Target sequence in this assay (Q8IDR3 whole entry): as the sequence (Q8IDR3 whole entry) above
Target sequence in this assay (Q8IJM4 entry or part of it, further chain): as the sequence (Q8IJM4 entry or part of it, further chain) above
Target sequence in this assay (Q8I4W8 entry or part of it, further chain): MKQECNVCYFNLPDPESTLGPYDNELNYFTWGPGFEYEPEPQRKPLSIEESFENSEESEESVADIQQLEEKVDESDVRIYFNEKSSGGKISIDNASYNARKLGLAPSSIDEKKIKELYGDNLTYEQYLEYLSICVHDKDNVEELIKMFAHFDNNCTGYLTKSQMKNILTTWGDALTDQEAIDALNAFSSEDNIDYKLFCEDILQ
Test [4] has the same target. The test can be described thus: stopped-flow fluorescence transient kinetics; Kd printed in text is in the presence of […] KNX-002. Format: binding. Further details: gene MyoA; full length PfMyoA heavy chain with light chains; with PfELC and PfMTIP light chains.
Target sequence in this assay (Q8IDR3 whole entry): as the sequence (Q8IDR3 whole entry) above
Target sequence in this assay (Q8IJM4 entry or part of it, further chain): as the sequence (Q8IJM4 entry or part of it, further chain) above

T2 sequence (Q8IDR3 whole entry, stated change not applied): as the sequence (Q8IDR3 whole entry) above
T2 sequence (Q8IJM4 whole entry, stated change not applied, further chain): as the sequence (Q8IJM4 entry or part of it, further chain) above

In the case of `Nc1ncnc2c1ncn2[C@@H]1O[C@H](COP(=O)(O)OP(=O)(O)O)[C@@H](O)[C@H]1O` [ADP], the “X-ray crystal structure, 2.03 Å” value in test [1] was “the substrate was hydrolyzed in PfMyoA/ATPγS/Apo leaving only Mg.ADP in the active site”.

Turning to `Nc1ncnc2c1ncn2[C@@H]1O[C@H](CO[P@](=O)(O)O[P@](=O)(O)O[P@@](=O)(O)S)[C@@H](O)[C@H]1O` [ATPγS], in test [2], the “X-ray crystal structure, 2.2 Å” value is recorded as “unhydrolyzed Mg.ATPyS occupies the active site of PfMyoA/ATPγS/KNX-002”.

As usually defined, the IC50 is the concentration needed to halve the response being measured. A lower IC50 goes with greater potency in that assay. By Kd is commonly meant the free concentration of one partner at which half of the binding sites on the other are occupied at equilibrium, for simple one-to-one binding. With `COc1ccc(C2(NCc3c[nH]nc3-c3cccs3)CC2)cc1` [KNX-002], at PfMyoA triple mutant, it took 52 µM to reach half-maximal inhibition (IC50). Binding in test [3] was characterised by a dissociation constant (Kd) of 8.6 µM.

Regarding mant-ADP, in test [4], the Kd was 3.5 µM.
